Experimental data: ChEMBL document CHEMBL4041510, “Design, synthesis, and biological evaluation of structurally modified isoindolinone and quinazolinone derivatives as hedgehog pathway inhibitors” (Eur J Med Chem, 2017)
Active and inactive are the calls of the source. No cut-off for these calls is given here.

Tests used:
[1] = Inhibition of hedgehog signaling pathway in mouse NIH/3T3 cells measured after 24 hrs by Gli-dual luciferase reporter gene assay; format: cell-based; settings: NIH3T3, 24 h
NIH3T3 = assay: Cytotoxicity against mouse NIH/3T3 cells assessed as cell viability by MTS assay; format: cell-based
Mus musculus [2] = species: Mus musculus; assay: Inhibition of hedgehog signaling pathway in Ptch deficient MEF assessed as downregulation of Gli-1 expression by Immunoblot analysis
[3] = Metabolic stability in human liver microsomes assessed as compound remaining at 1 uM preincubated for 5 mins followed by NADPH addition measured after 30 mins by LC-ESI/MS/MS analysis relative to control; format: ADME, microsome; settings: read-out: Stability
[4] = Metabolic stability in human liver microsomes assessed as compound remaining at 1 uM in absence of NADPH incubated for 5 mins by LC-ESI/MS/MS analysis relative to control; format: ADME, microsome; settings: read-out: Stability
[5] = Metabolic stability in human liver microsomes assessed as compound remaining at 1 uM preincubated for 5 mins followed by UDPGA addition measured after 30 mins by LC-ESI/MS/MS analysis relative to control; format: ADME, microsome; settings: read-out: Stability
[6] = Metabolic stability in human liver microsomes assessed as compound remaining at 1 uM in absence of UDPGA incubated for 5 mins by LC-ESI/MS/MS analysis relative to control; format: ADME, microsome; settings: read-out: Stability
Mus musculus [7] = species: Mus musculus; assay: Inhibition of hedgehog signaling pathway in mouse NIH/3T3 cells assessed as inhibition of hedgehog-induced Smo-EGFP ciliary translocation by DAPI staining based confocal microscopic analysis; format: cell-based
Mus musculus [8] = species: Mus musculus; assay: Inhibition of hedgehog signaling pathway expressed in mouse NIH/3T3 cells assessed as inhibition of hedgehog-induced Gli-2 accumulation at tip of primary cilia by DAPI staining based confocal microscopic analysis; format: cell-based
[9] = Inhibition of hedgehog signaling pathway in mouse NIH/3T3 cells expressing wild type Smo assessed as reduction in Gli mRNA expression by RT-PCR method; format: cell-based; settings: NIH3T3
[10] = Inhibition of hedgehog signaling pathway in mouse NIH/3T3 cells harboring Smo D477H mutant assessed as reduction in Gli mRNA expression by RT-PCR method; format: cell-based; settings: NIH3T3
Mus musculus [11] = species: Mus musculus; assay: Selectivity ratio of IC50 for hedgehog signaling pathway in mouse NIH/3T3 cells harboring Smo D477H mutant to IC50 for hedgehog signaling pathway in mouse NIH/3T3 cells expressing wild type Smo; format: cell-based

Row | Compound | IC50 [1] [nM] | Activity (NIH3T3) [µM] | other results
1 | O=c1c2cccc(Cl)c2ncn1-c1ccc(N2CCOCC2)nc1 | 15300 | > 20 | –
2 | C[C@@H]1CN(c2ccc(-n3cnc4c(Cl)cccc4c3=O)cn2)C[C@H](C)O1 | 7490 | > 20 | –
3 | C[C@@H]1CN(c2cc(-n3cnc4c(-c5ccc(OC(F)(F)F)cc5)cccc4c3=O)ncn2)C[C@H](C)O1 | 44200 | > 20 | –
4 | C[C@@H]1CN(c2ccc(N3Cc4c(cccc4-c4cccnc4)C3=O)cn2)C[C@H](C)O1 | 7690 | > 20 | –
5 | CC1CCN(c2cc(-n3cnc4c(-c5ccc(OC(F)(F)F)cc5)cccc4c3=O)ncn2)CC1 | 7700 | > 20 | –
6 | Cc1cc(=O)oc2cc(O)ccc12 [HYMECROMONE] | – | – | remaining at 0.5 h, 1 µM [5]: 0.46%; remaining at 5 min, 1 µM [6]: 92.2%
7 | O=c1c2cccc(-c3ccc(OC(F)(F)F)cc3)c2ncn1CCN1CCOCC1 | 6600 | > 20 | –
8 | O=c1c2cccc(-c3ccc(OC(F)(F)F)cc3)c2ncn1-c1ccc(N2CCOCC2)nc1 | 5410 | > 20 | –
9 | C[C@@H]1CN(c2ccc(N3Cc4c(cccc4-c4ccc(F)cc4F)C3=O)cn2)C[C@H](C)O1 | 1710 | > 20 | –
10 | O=c1c2cccc(-c3ccc(OC(F)(F)F)cc3)c2ncn1-c1ccc(N2CCOCC2)cc1 | 4520 | > 20 | –
11 | O=c1c2cccc(Cl)c2ncn1-c1ccc(N2CCOCC2)cc1 | > 20000 | > 20 | –
12 | O=c1c2cccc(-c3ccc(OC(F)(F)F)cc3)c2ncn1CCCn1ccnc1 | 5280 | > 20 | –
13 | O=C1CC2(CCCC2)CC(=O)N1CCCCN1CCN(c2ncccn2)CC1 [BUSPIRONE] | – | – | remaining at 0.5 h, 1 µM [3]: 5.17%; remaining at 5 min, 1 µM [4]: 96.7%
14 | C[C@@H]1CN(c2ccc(N3Cc4c(cccc4-c4ccc(OC(F)(F)F)cc4)C3=O)cn2)C[C@H](C)O1 | 1800 | > 20 | –

Continued, in another order:

Row | IC50 [1] [nM] | Compound | Activity (NIH3T3) [µM] | other results
15 | 38 | C[C@@H]1CN(c2ccc(-n3cnc4c(-c5ccccc5)cccc4c3=O)cn2)C[C@H](C)O1 | > 20 | inhibition (Mus musculus [2]): Active; remaining at 0.5 h, 1 µM [3]: 68.2%; remaining at 5 min, 1 µM [4]: 83.7%; remaining at 0.5 h, 1 µM [5]: 91%; remaining at 5 min, 1 µM [6]: 93.1%; inhibition (Mus musculus [7]): Active; inhibition (Mus musculus [8]): Active; IC50 [9]: 257 nM; IC50 [10]: 91.1 nM; Ratio IC50 (Mus musculus [11]): 0.355
16 | 5 | CS(=O)(=O)c1ccc(C(=O)Nc2ccc(Cl)c(-c3ccccn3)c2)c(Cl)c1 [VISMODEGIB] | – | inhibition (Mus musculus [7]): Active; inhibition (Mus musculus [8]): Active; IC50 [9]: 14.4 nM; IC50 [10]: 1200 nM; Ratio IC50 (Mus musculus [11]): 82.7
17 | 196 | C[C@@H]1CN(c2ccc(-n3cnc4c(-c5ccc(OC(F)(F)F)cc5)cccc4c3=O)nc2)C[C@H](C)O1 | > 20 | –
18 | 159 | C[C@@H]1CN(c2ccc(-n3cnc4c(-c5ccc(OC(F)(F)F)cc5)cccc4c3=O)cn2)C[C@H](C)O1 | > 20 | –
19 | 1240 | C[C@@H]1CN(c2cc(-n3cnc4c(Cl)cccc4c3=O)ncn2)C[C@H](C)O1 | > 20 | –
20 | 430 | C[C@@H]1CN(c2ccc(-n3cnc4c(-c5ccc(S(C)(=O)=O)cc5)cccc4c3=O)cn2)C[C@H](C)O1 | > 20 | –
21 | 269 | O=c1c2cccc(Cl)c2ncn1-c1ccc(F)cc1 | > 20 | –
22 | 196 | COc1ccc(-c2cccc3c(=O)n(-c4ccc(N5C[C@@H](C)O[C@@H](C)C5)nc4)cnc23)cc1 | > 20 | –
23 | 132 | O=c1c2cccc(-c3ccccc3)c2ncn1-c1ccc(N2CCOCC2)cc1 | > 20 | –
24 | 1140 | C[C@@H]1CN(c2cc(N3Cc4c(cccc4-c4ccc(OC(F)(F)F)cc4)C3=O)ncn2)C[C@H](C)O1 | > 20 | –
25 | 6 | Cc1c(C(=O)Nc2ccc(N3C[C@@H](C)O[C@@H](C)C3)nc2)cccc1-c1ccc(OC(F)(F)F)cc1 [SONIDEGIB] | > 20 | remaining at 0.5 h, 1 µM [3]: 68%; remaining at 5 min, 1 µM [4]: 99.7%; remaining at 0.5 h, 1 µM [5]: 88.4%; remaining at 5 min, 1 µM [6]: 89.5%; inhibition (Mus musculus [7]): Active; inhibition (Mus musculus [8]): Active; IC50 [9]: 4.4 nM; IC50 [10]: 22.7 nM; Ratio IC50 (Mus musculus [11]): 5.16
26 | 305 | Cc1ccc(-c2cccc3c(=O)n(-c4ccc(N5C[C@@H](C)O[C@@H](C)C5)nc4)cnc23)cc1 | > 20 | –
27 | 439 | C[C@@H]1CN(c2ccc(-n3cnc4c(-c5cccc6ccccc56)cccc4c3=O)cn2)C[C@H](C)O1 | > 20 | –
28 | 433 | COc1cccc(-c2cccc3c(=O)n(-c4ccc(N5CCOCC5)cc4)cnc23)c1 | > 20 | –
29 | 847 | CC1CCN(c2ccc(-n3cnc4c(-c5ccc(OC(F)(F)F)cc5)cccc4c3=O)cn2)CC1 | > 20 | –
30 | 118 | C[C@@H]1CN(c2ccc(-n3cnc4c(-c5ccc(F)cc5)cccc4c3=O)cn2)C[C@H](C)O1 | > 20 | inhibition (Mus musculus [2]): Active; remaining at 0.5 h, 1 µM [3]: 76.3%; remaining at 5 min, 1 µM [4]: 91.3%; remaining at 0.5 h, 1 µM [5]: 83.5%; remaining at 5 min, 1 µM [6]: 83.2%; inhibition (Mus musculus [7]): Active; inhibition (Mus musculus [8]): Active; IC50 [9]: 114 nM; IC50 [10]: 246 nM; Ratio IC50 (Mus musculus [11]): 2.16
